# Assay results as given in ChEMBL document CHEMBL1144131, “The taxane diterpenoids” (J Nat Prod, 1999).
# Tested on: P388
# Test: Cytotoxicity against mouse P388 cells
# Format: functional, cell-based
row,Compound,IC50
1,CC(=O)O[C@@H]1C2=C(C)C(=O)C[C@@](O)([C@@H](OC(=O)c3ccccc3)[C@@H]3[C@]4(OC(C)=O)CO[C@@H]4C[C@H](O)[C@@]3(C)[C@H]1O)C2(C)C,21 µg/mL
2,C=C1[C@@H](OC(=O)/C=C/c2ccccc2)C[C@H](OC(C)=O)[C@@]2(C)[C@@H](OC(C)=O)[C@H](OC(C)=O)C3=C(C)[C@@H](OC(C)=O)C[C@@H]([C@@H](O)[C@H]12)C3(C)C,3.9 µg/mL
3,CC(=O)O[C@H]1C[C@H]2OC[C@@]2(OC(C)=O)[C@H]2[C@H](OC(=O)c3ccccc3)[C@]3(C(C)(C)O)C[C@H](O)C(C)=C3[C@@H](O)[C@H](O)[C@]12C,44 µg/mL
